Measurements published in paper PMC10571995, “Near-Infrared Imaging of Colonic Adenomas In Vivo Using Orthotopic Human Organoids for Early Cancer Detection” (Cancers, 2023).
Residues, ends and D or L forms follow the SMILES beside them. *: point of attachment. X2 = CC1(C)C(/C=C/C2=C(Oc3ccc(S(=O)(=O)O)cc3)C(=C/C=C3/N(CCCCCC(=O)NCCN4C(=O)CC(*)C4=O)c4ccc(S(=O)(=O)O)cc4C3(C)C)/CCC2)=[N+](CCCCS(=O)(=O)[O-])c2ccc(S(=O)(=O)O)cc21; X1 = CC1(C)C(=CC=C2CCCC(C=CC3=[N+](CCCCS(=O)(=O)[O-])c4ccc(S(=O)(=O)O)cc4C3(C)C)=C2Oc2ccc(S(=O)(=O)O)cc2)N(CCCCCC(=O)NCCN2C(=O)CC(*)C2=O)c2ccc(S(=O)(=O)O)cc21

Columns and labels:
cMet [1] = target: T1, cMet (Homo sapiens, UniProt P08581); assay: Peptide biodistribution, ex vivo NIR fluorescence of resected organs and colonoids (Pearl Trilogy); format: in vivo; details: NSG mice, 200 μM, 200 μL i.v., 1 hour post-injection, ex vivo λex 785 / λem 820 nm, mean ± SD
T1 construct: Human colonoids provide clinically relevant levels of target expression; endogenous in cells; host or cells: Patient-derived human colonoids (cMet-high adenoma, cMet-low adenoma, normal), either cultured or implanted orthotopically in NSG mouse colon
T1 sequence (P08581 25-1390): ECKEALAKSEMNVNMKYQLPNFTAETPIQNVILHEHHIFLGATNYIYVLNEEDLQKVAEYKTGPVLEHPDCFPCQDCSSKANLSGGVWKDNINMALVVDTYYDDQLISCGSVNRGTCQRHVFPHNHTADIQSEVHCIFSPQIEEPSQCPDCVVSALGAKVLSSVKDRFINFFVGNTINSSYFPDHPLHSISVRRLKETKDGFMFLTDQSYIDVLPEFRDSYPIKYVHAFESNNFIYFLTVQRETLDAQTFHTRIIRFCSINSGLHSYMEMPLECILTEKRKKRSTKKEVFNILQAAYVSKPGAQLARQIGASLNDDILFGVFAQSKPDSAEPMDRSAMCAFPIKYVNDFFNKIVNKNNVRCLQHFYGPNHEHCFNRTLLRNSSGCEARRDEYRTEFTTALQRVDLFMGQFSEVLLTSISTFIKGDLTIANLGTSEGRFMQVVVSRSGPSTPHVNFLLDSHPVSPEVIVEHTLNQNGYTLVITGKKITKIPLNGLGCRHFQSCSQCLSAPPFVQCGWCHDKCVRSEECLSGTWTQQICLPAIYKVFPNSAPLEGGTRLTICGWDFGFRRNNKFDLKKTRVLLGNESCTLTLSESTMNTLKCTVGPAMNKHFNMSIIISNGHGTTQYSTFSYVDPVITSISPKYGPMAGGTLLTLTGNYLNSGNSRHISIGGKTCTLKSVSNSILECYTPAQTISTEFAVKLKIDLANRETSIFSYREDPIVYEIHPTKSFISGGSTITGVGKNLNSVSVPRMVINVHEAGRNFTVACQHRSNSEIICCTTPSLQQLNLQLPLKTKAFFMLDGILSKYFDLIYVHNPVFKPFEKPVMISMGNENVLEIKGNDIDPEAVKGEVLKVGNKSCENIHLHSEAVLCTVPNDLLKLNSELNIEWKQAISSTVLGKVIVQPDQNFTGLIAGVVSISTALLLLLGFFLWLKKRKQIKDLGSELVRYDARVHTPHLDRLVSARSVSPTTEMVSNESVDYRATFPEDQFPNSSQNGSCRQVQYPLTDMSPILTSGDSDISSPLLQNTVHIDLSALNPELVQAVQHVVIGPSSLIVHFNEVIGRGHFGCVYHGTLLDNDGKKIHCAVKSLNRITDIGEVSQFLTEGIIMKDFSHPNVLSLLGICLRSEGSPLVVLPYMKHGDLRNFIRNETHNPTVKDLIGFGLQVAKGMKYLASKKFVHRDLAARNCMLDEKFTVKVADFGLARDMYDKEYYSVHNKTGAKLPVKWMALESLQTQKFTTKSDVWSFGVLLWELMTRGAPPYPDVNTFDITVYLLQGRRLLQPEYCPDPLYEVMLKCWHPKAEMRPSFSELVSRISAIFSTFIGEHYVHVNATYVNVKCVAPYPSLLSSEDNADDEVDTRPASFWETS
Protocol: Peptides (200 μM, 200 μL) were injected intravenously in NSG mice ~3 weeks after orthotopic implantation of the patient-derived colonoids. The mice were euthanized at 1 h post-injection. Major organs were resected and imaged using the Pearl Trilogy (LI-COR Biosciences) with excitation at λex = 785 nm and emission at λem = 820 nm to measure the peptide biodistribution. Fluorescence intensities were quantified from each whole tumor or organ using Image Studio 5.5.4 software (LI-COR Biosciences).

[2] = Peptide safety: necropsy histology (H&E), blood hematology and chemistry; format: in vivo, mouse; details: CPC;Apc mice, 200 μM, 200 μL i.v., 48 h post-injection
Protocol: CPC;Apc mice were euthanized at 48 hours post-injection with QQT* -IRDye800 (200 μM, 200 μL). Vital organs were excised, sectioned, and evaluated by routine histology (H&E) to evaluate for signs of acute toxicity. Whole blood was collected retro-orbitally using a capillary tube and submitted for evaluation of hematology and chemistry.

cMet [3] = target: T1, cMet; assay: Ex vivo immunofluorescence of excised NSG mouse colon with implanted colonoids, human-to-mouse (h/m) ratio; format: binding; details: excised NSG colon sections, peptide 5 μM 10 min RT, antibody 1:100, mean ± SD, n = 6 colonoids
Protocol: Tissue sections were deparaffinized, and antigen retrieval was performed as described previously. Sections were blocked with goat serum for 30 min at RT followed by overnight incubation with 1:100 dilution of monoclonal anti-cMet antibody (Abcam; #EP1454Y) and undiluted human-specific anti-cytokeratin (CAM 5.2, BD Biosciences, Franklin Lakes, NJ, USA; #345779) at 4 °C. Thereafter, 1:500 AF488-labeled goat anti-rabbit secondary antibody (Life Technologies; #A-11029) and 1:500 AF568-labeled goat anti-mouse secondary antibody (Abcam, #ab175473) were administered. After washing with PBST, the slides were stained with the IRDye800-labeled peptides at a concentration of 5 μM for 10 min at RT. The tissue sections were then washed with PBST and mounted using a Prolong Gold reagent containing DAPI (Invitrogen; #P36931). NIR fluorescence images were collected using an inverted confocal microscope (Leica; Stellaris 5). The fluorescence intensities were quantified using custom MATLAB R2022a, and regions of saturated intensities were avoided.

[4] = Serum stability by analytical RP-HPLC; format: in vitro ADME; details: CPC;Apc mouse serum 194 μL, 30 μM peptide, 37 °C, 0, 0.5, 1, 2, 4, 8, 24 h, acetonitrile precipitation, RP-HPLC area under the peak, R^2 = 0.99; read-out: Half-life T1/2 in mouse serum (converted)
Protocol: Peptide stability was evaluated by incubating 6 μL of 1 mM peptide in PBS at 37 °C, resulting in a final concentration of 30 μM in 194 μL of serum obtained from a CPC;Apc mouse. Samples were precipitated by adding a double volume of acetonitrile and centrifuging for 10 min at 4 °C. RP-HPLC was performed at 0, 0.5, 1, 2, 4, 8, and 24 h. The relative peptide concentrations were determined by measuring the area under the peak (Waters, Breeze 2). The coefficient of determination R^2 was determined using Graphpad Prism 8 software (GraphPad Software, Boston, MA, USA).

colonic adenomas = assay: In vivo NIR fluorescence endoscopy of spontaneous colonic adenomas in CPC;Apc mice (pharmacokinetics, T/B ratio); set-up: species or system mouse
Protocol: CPC;Apc mice have been genetically engineered to sporadically delete an APC gene regulated by a Cre promoter (CDX2P-9.5NLS-Cre) to spontaneously form either flat or polypoid adenomas in the distal colon.
The IRDye800-labeled target peptide (200 μM, 200 μL) was injected intravenously in Cpc;Apc mice, and fluorescence images were collected at 0, 0.5, 1, 2, 4, 6, 10, 24, 48 h post-injection using the small animal endoscope. The IRDye800-labeled scrambled (control) peptide was administered and imaged the same way 3 days after. The adjacent nontumor tissue region with an equal area of the tumor region was used for background. The time point with the highest target-to-background (T/B) ratio was selected as peak uptake.

cMet [5] = target: T1, cMet; assay: In vivo NIR fluorescence endoscopy of patient-derived colonoids implanted orthotopically in NSG mouse colon; details: NSG mice, 1 h post-injection, n = 6 mice
Protocol: Colonoids were harvested and treated, as described previously. Colonoids were resuspended in engraftment medium: DPBS, 5% Matrigel, 10 µM Y27632. Prior to colonoid implantation, 7–12-week-old NSG (NOD.Cg-Prkdc^scidIl2rg^tm1Wjl/SzJ, Jackson laboratory, #005557) mice were treated with 2.5% dextran sulfate sodium (DSS) for 5 days and supplied with regular water for another day. Anesthesia was induced and maintained via a nose cone with inhaled isoflurane mixed with oxygen at concentrations of 2–4% at a flow rate of 0.5 L/min. A total of ~2.5–5 × 10^5 cell aggregates in 200 μL were injected intrarectally. The rectum was closed immediately using tissue adhesive (Santa Cruz Biotechnology, Dallas, TX, USA; #SC361931) to promote retention of the implanted colonoids. Colonoid growth was monitored weekly by small animal endoscopy with white light illumination. Imaging was performed after the implanted adenomas were clearly visible.
Mice were fasted for 4–6 h prior to in vivo imaging. Anesthesia was induced and maintained using inhaled isoflurane mixed with oxygen at concentrations of 2–4% and a flow rate of 0.5 L/min via a nose cone. The peptides were injected intravenously using a concentration of 200 μM diluted in 200 μL of PBS. A rigid small animal endoscope (Karl Storz Veterinary Endoscopy, Goleta, CA, USA) was modified to deliver NIR excitation at λex = 785 nm. This instrument was inserted into the mouse rectum at 1 h post-injection to collect in vivo fluorescence images. After 3 days to allow for target peptide clearance, the scrambled (control) peptide was administered systemically and imaged similarly. A total of n = 3 independent regions of interest (ROI) with dimensions of 20 × 20 μm^2 were identified randomly from the implanted area (target) and from adjacent normal colonic mucosa (background). The mean fluorescence intensities were used to calculate target-to-background (T/B) ratios.

[6] = 200 μM, 200 μL i.v., images at 0-48 h
[7] = spontaneous adenomas, 1 hour after i.v. administration, mean ± SD
[8] = 200 μM in 200 μL i.v., mean ± SD

Row | Structure (SMILES) | Uptake (quantified fluorescence) by cMet^high adenoma colonoid (cMet [1]) | Uptake (quantified fluorescence) by cMet^low adenoma colonoid (cMet [1]) | Uptake (quantified fluorescence) by normal human colonoid (cMet [1]) | Acute toxicity in animal necropsy, histology (H&E) of vital organs [2] | Whole blood hematology and chemistry ([2]; n = 6 mice) | Fluorescence intensity human-to-mouse (h/m) ratio, cMet^high adenoma colonoid (cMet [3]) | Fluorescence intensity human-to-mouse (h/m) ratio, cMet^low adenoma (cMet [3]) | Fluorescence intensity human-to-mouse (h/m) ratio, normal colonoid (cMet [3]) | half-life at 30 μM [4] | Peak T/B ratio (peak uptake by the adenoma) (colonic adenomas; 200 μM, 200 μL i.v., at 1 h post-injection, mean ± SD, n = 6 mice) | Time of peak uptake (peak T/B ratio) post-injection (colonic adenomas; [6]) | Time to clearance of signal (return to baseline) (colonic adenomas; [6]) | T/B ratio, flat lesions (colonic adenomas; [7]) | T/B ratio, grossly visible adenomas (colonic adenomas; [7]) | T/B ratio, small adenomas (colonic adenomas; [7]) | Quantified fluorescence intensity (T/B ratio) in vivo, cMet^high adenoma (cMet [5]; 200 μM in 200 μL i.v., endoscope λex 785 nm, mean ± SD) | Quantified fluorescence intensity (T/B ratio) in vivo, cMet^low adenoma (cMet [5]; [8]) | Quantified fluorescence intensity (T/B ratio) in vivo, normal colonoid (cMet [5]; [8]) | Fold increase QQT*-IRDye800 versus TLQ*-IRDye800, cMet^high adenoma (cMet [5])
1 | CC(C)C[C@H](NC(=O)[C@@H](N)[C@@H](C)O)C(=O)N[C@@H](CCC(N)=O)C(=O)N[C@@H](Cc1c[nH]c2ccccc12)C(=O)N[C@@H](CC(N)=O)C(=O)N[C@@H](CCC(N)=O)C(=O)N[C@@H](CO)C(=O)NCC(=O)NCC(=O)NCC(=O)N[C@@H](CO)C(=O)N[C@@H](CSC1CC(=O)N(CCNC(=O)CCCCCN2/C(=C/C=C3\CCCC(/C=C/C4=[N+](CCCCS(=O)(=O)[O-])c5ccc(S(=O)(=O)O)cc5C4(C)C)=C3Oc3ccc(S(=O)(=O)O)cc3)C(C)(C)c3cc(S(=O)(=O)O)ccc32)C1=O)C(N)=O (stereo partly drawn) [TLQ*-IRDye800, reference compound] (H-TLQWNQSGGGSC(X2)-NH2) | 0.29±0.098 | 0.25±0.06 |  |  |  |  |  |  |  |  |  |  |  |  |  |  |  |  | 
2 | CC(C)C[C@H](NC(=O)[C@H](CO)NC(=O)[C@H](Cc1c[nH]c2ccccc12)NC(=O)[C@H](CC(N)=O)NC(=O)[C@@H](NC(=O)[C@H](CCC(N)=O)NC(=O)[C@@H](N)CCC(N)=O)[C@@H](C)O)C(=O)NCC(=O)NCC(=O)NCC(=O)N[C@@H](CO)C(=O)N[C@@H](CSC1CC(=O)N(CCNC(=O)CCCCCN2C(=CC=C3CCCC(C=CC4=[N+](CCCCS(=O)(=O)[O-])c5ccc(S(=O)(=O)O)cc5C4(C)C)=C3Oc3ccc(S(=O)(=O)O)cc3)C(C)(C)c3cc(S(=O)(=O)O)ccc32)C1=O)C(N)=O (stereo partly drawn) [QQT*-IRDye800] (H-QQTNWSLGGGSC(X1)-NH2; N-terminus and C-terminus assumed) | 1.24±0.16 | 0.23±0.08 | 0.18±0.04 | No signs of acute toxicity | No significant abnormalities | 7.68 ± 1.23 | 0.87 ± 0.31 | 1.19 ± 0.39 | 216 min | 2.2 ± 0.4 | 1 h | ~ 24 h | 2.17±0.30 | 1.91±0.28 | 2.23±0.43 | 2.35 ± 0.35 | 1.19 ± 0.12 | 1.22 ± 0.18 | 1.8 fold
